What was measured:
barnyardgrass [1] = assay: Test A preemergence; assay type: in vivo, Echinochloa crus-galli; details: preemergence
Procedure, shortened: (§1)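 Visual injury ratings, 0 = no effect to 100 = complete control, taken about 10 days after treatment against untreated controls. Test chemicals, in a non-phytotoxic surfactant-containing solvent, were sprayed onto soil preemergence or onto one- to two-leaf plants (2–10 cm) postemergence, in loam–sand soil under greenhouse conditions.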

crabgrass, large [2] = assay: Test A preemergence; assay type: in vivo, Digitaria sanguinalis; details: preemergence
Procedure, shortened: as §1

velvetleaf [3] = assay: Test A preemergence; assay type: in vivo, Abutilon theophrasti; details: preemergence
Procedure, shortened: as §1

wheat [4] = assay: Test A preemergence; assay type: in vivo, Triticum aestivum; details: preemergence
Procedure, shortened: as §1

corn [5] = assay: Test A preemergence; assay type: in vivo, Zea mays; details: preemergence
Procedure, shortened: as §1

crabgrass, large [6] = assay: Test A postemergence; assay type: in vivo, Digitaria sanguinalis
Procedure, shortened: as §1

pigweed = assay: Test A postemergence; assay type: in vivo, Amaranthus retroflexus
Procedure, shortened: as §1

wheat [7] = assay: Test A postemergence; assay type: in vivo, Triticum aestivum
Procedure, shortened: as §1

blackgrass = assay: Test C preemergence; assay type: in vivo, Alopecurus myosuroides; details: for Blackgrass plant response rating / Plant response rating, Blackgrass: preemergence; for Plant response rating, Blackgrass: 125 g ai/ha, scale 0 to 100, 0 = no effect, 100 = complete control
Procedure, shortened: (§2)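 Herbicidal effect is expressed as percent visual control (0–100) judged against untreated plants 13 to 15 days after treatment in the greenhouse. Preemergence pots contained seeds in a soil–sand blend; postemergence plants, 2–18 cm tall, grew in peat-based planting medium.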

wheat [8] = assay: Test C preemergence; assay type: in vivo, Triticum aestivum; details: for Wheat plant response rating / Plant response rating, Wheat: preemergence; for Plant response rating, Wheat: 125 g ai/ha, scale 0 to 100, 0 = no effect, 100 = complete control
Procedure, shortened: as §2

corn [9] = assay: Test C preemergence; assay type: in vivo, Zea mays; details: for Corn plant response rating / Plant response rating, Corn: preemergence; for Plant response rating, Corn: 125 g ai/ha, scale 0 to 100, 0 = no effect, 100 = complete control
Procedure, shortened: as §2

foxtail, giant = assay: Test C preemergence; assay type: in vivo, Setaria faberii; details: for Foxtail, Giant plant response rating / Plant response rating, Foxtail, Giant: preemergence; for Plant response rating, Foxtail, Giant: 125 g ai/ha, scale 0 to 100, 0 = no effect, 100 = complete control
Procedure, shortened: as §2

johnsongrass = assay: Test C preemergence; assay type: in vivo, Sorghum halepense; details: for Johnsongrass plant response rating / Plant response rating, Johnsongrass: preemergence; for Plant response rating, Johnsongrass: 125 g ai/ha, scale 0 to 100, 0 = no effect, 100 = complete control
Procedure, shortened: as §2

ragweed = assay: Test C preemergence; assay type: in vivo, Ambrosia elation; details: for Ragweed plant response rating / Plant response rating, Ragweed: preemergence; for Plant response rating, Ragweed: 125 g ai/ha, scale 0 to 100, 0 = no effect, 100 = complete control
Procedure, shortened: as §2

barnyardgrass [10] = assay: Test C preemergence; assay type: in vivo, Echinochloa crus-galli; details: for Barnyardgrass plant response rating / Plant response rating, Barnyardgrass: preemergence; for Plant response rating, Barnyardgrass: 125 g ai/ha, scale 0 to 100, 0 = no effect, 100 = complete control
Procedure, shortened: as §2

oilseed rape = assay: Test C preemergence; assay type: in vivo, Brassica napus; details: for Oilseed Rape plant response rating / Plant response rating, Oilseed Rape: preemergence; for Plant response rating, Oilseed Rape: 125 g ai/ha, scale 0 to 100, 0 = no effect, 100 = complete control
Procedure, shortened: as §2

velvetleaf [11] = assay: Test C preemergence; assay type: in vivo, Abutilon theophrasti; details: for Velvetleaf plant response rating / Plant response rating, Velvetleaf: preemergence; for Plant response rating, Velvetleaf: 125 g ai/ha, scale 0 to 100, 0 = no effect, 100 = complete control
Procedure, shortened: as §2

[12] = 125 g ai/ha, visual injury approx. 10 days after treatment
[13] = 500 g ai/ha, visual injury after approx. 10 days, 0 to 100 scale (0 no effect, 100 complete control)
[14] = Postemergence, 500 g ai/ha, 0 to 100 scale (0 no effect, 100 complete control)
[15] = postemergence, 125 g ai/ha, about 10 days, visual rating on 0 to 100 scale (0 no effect, 100 complete control)
[16] = Postemergence, 125 g ai/ha, 0 to 100 scale, 0 no effect, 100 complete control
[17] = 31 g ai/ha, visual rating, scale 0 to 100 (0 no effect, 100 complete control), 13 to 15 days
[18] = 62 g ai/ha, scale 0 to 100 (0 no effect, 100 complete control), 13 to 15 days
[19] = 250 g ai/ha, scale 0 to 100, 0 is no effect, 100 is complete control
[20] = 125 g ai/ha, visual injury, 0 to 100 scale, approx. 10 days

CCCc1cc(C(=O)NOCC)nn1Cc1ccnc(C(F)(F)F)c1 [Compound 185]
Barnyardgrass plant response rating (0 to 100 scale, 0 is no effect, 100 is complete control) (barnyardgrass [1]; [12]): 80 | Barnyardgrass plant response rating (barnyardgrass [1]; [13]): 100 | Crabgrass, Large plant response rating (0 to 100 scale) (crabgrass, large [2]; [12]): 100 | Crabgrass, Large plant response rating (crabgrass, large [2]; [13]): 100 | Velvetleaf plant response rating (0 to 100 scale) (velvetleaf [3]; [12]): 70 | Velvetleaf plant response rating (velvetleaf [3]; [13]): 100 | Wheat plant response rating (0 to 100 scale) (wheat [4]; [12]): 70 | Wheat plant response rating (wheat [4]; [13]): 90 | Corn plant response rating (0 to 100 scale) (corn [5]; [12]): 10 | Corn plant response rating (corn [5]; [13]): 30 | Crabgrass, Large plant response rating (crabgrass, large [6]; [14]): 90 | Crabgrass, Large plant response rating (crabgrass, large [6]; [15]): 80 | Pigweed plant response rating (pigweed; [16]): 60 | Pigweed plant response rating (pigweed; [14]): 100 | Wheat plant response rating (wheat [7]; [16]): 0 | Wheat plant response rating (wheat [7]; [14]): 80 | Blackgrass plant response rating (blackgrass; [17]): 5 | Blackgrass plant response rating (blackgrass; [18]): 10 | Plant response rating, Blackgrass (blackgrass; 13 to 15 days): 90 | Blackgrass plant response rating (blackgrass; [19]): 80 | Wheat plant response rating (wheat [8]; [17]): 0 | Wheat plant response rating (wheat [8]; [18]): 60 | Plant response rating, Wheat (wheat [8]; 13 to 15 days): 85 | Wheat plant response rating (wheat [8]; [19]): 90 | Corn plant response rating (corn [9]; [17]): 5 | Corn plant response rating (corn [9]; [18]): 25 | Plant response rating, Corn (corn [9]; 13 to 15 days): 45 | Corn plant response rating (corn [9]; [19]): 75 | Foxtail, Giant plant response rating (foxtail, giant; [17]): 60 | Foxtail, Giant plant response rating (foxtail, giant; [18]): 90 | Plant response rating, Foxtail, Giant (foxtail, giant; 13 to 15 days): 98 | Foxtail, Giant plant response rating (foxtail, giant; [19]): 100 | Johnsongrass plant response rating (johnsongrass; [17]): 5 | Johnsongrass plant response rating (johnsongrass; [18]): 10 | Plant response rating, Johnsongrass (johnsongrass; 13 to 15 days): 20 | Johnsongrass plant response rating (johnsongrass; [19]): 60 | Ragweed plant response rating (ragweed; [17]): 5 | Ragweed plant response rating (ragweed; [18]): 75 | Plant response rating, Ragweed (ragweed; 13 to 15 days): 95 | Ragweed plant response rating (ragweed; [19]): 100 | Barnyardgrass plant response rating (barnyardgrass [10]; [17]): 55 | Barnyardgrass plant response rating (barnyardgrass [10]; [18]): 75 | Plant response rating, Barnyardgrass (barnyardgrass [10]; 13 to 15 days): 98 | Barnyardgrass plant response rating (barnyardgrass [10]; [19]): 100 | Oilseed Rape plant response rating (oilseed rape; [17]): 70 | Oilseed Rape plant response rating (oilseed rape; [18]): 80 | Plant response rating, Oilseed Rape (oilseed rape; 13 to 15 days): 85 | Oilseed Rape plant response rating (oilseed rape; [19]): 100 | Velvetleaf plant response rating (velvetleaf [11]; [17]): 20 | Velvetleaf plant response rating (velvetleaf [11]; [18]): 65 | Plant response rating, Velvetleaf (velvetleaf [11]; 13 to 15 days): 100 | Velvetleaf plant response rating (velvetleaf [11]; [19]): 98

CCNC(=O)c1cc(CC)n(Cc2ccnc(OC(F)F)c2)n1 [Compound 130]
Barnyardgrass plant response rating (barnyardgrass [1]; [20]): 90 | Barnyardgrass plant response rating (barnyardgrass [1]; [13]): 100 | Crabgrass, Large plant response rating (crabgrass, large [2]; [20]): 100 | Crabgrass, Large plant response rating (crabgrass, large [2]; [13]): 100 | Velvetleaf plant response rating (velvetleaf [3]; [20]): 70 | Velvetleaf plant response rating (velvetleaf [3]; [13]): 100 | Wheat plant response rating (wheat [4]; [20]): 10 | Wheat plant response rating (wheat [4]; [13]): 90 | Corn plant response rating (corn [5]; [20]): 0 | Corn plant response rating (corn [5]; [13]): 90 | Crabgrass, Large plant response rating (crabgrass, large [6]; [14]): 90 | Crabgrass, Large plant response rating (crabgrass, large [6]; [15]): 70 | Pigweed plant response rating (pigweed; [14]): 100 | Pigweed plant response rating (pigweed; [15]): 100 | Wheat plant response rating (wheat [7]; [14]): 90 | Wheat plant response rating (wheat [7]; [15]): 20 | Plant response rating (scale of 0 to 100), Blackgrass (blackgrass; Preemergence, 250 g ai/ha): 98 | Blackgrass plant response rating (blackgrass; [17]): 25 | Blackgrass plant response rating (blackgrass; [18]): 98 | Plant response rating, Blackgrass (blackgrass; 13 to 15 days): 98 | Plant response rating (scale of 0 to 100), Wheat (wheat [8]; Preemergence, 250 g ai/ha): 95 | Wheat plant response rating (wheat [8]; [17]): 0 | Wheat plant response rating (wheat [8]; [18]): 35 | Plant response rating, Wheat (wheat [8]; 13 to 15 days): 40 | Plant response rating (scale of 0 to 100), Corn (corn [9]; Preemergence, 250 g ai/ha): 85 | Corn plant response rating (corn [9]; [17]): 5 | Corn plant response rating (corn [9]; [18]): 30 | Plant response rating, Corn (corn [9]; 13 to 15 days): 45 | Plant response rating (scale of 0 to 100), Foxtail, Giant (foxtail, giant; Preemergence, 250 g ai/ha): 100 | Foxtail, Giant plant response rating (foxtail, giant; [17]): 70 | Foxtail, Giant plant response rating (foxtail, giant; [18]): 95 | Plant response rating, Foxtail, Giant (foxtail, giant; 13 to 15 days): 100 | Plant response rating (scale of 0 to 100), Johnsongrass (johnsongrass; Preemergence, 250 g ai/ha): 95 | Johnsongrass plant response rating (johnsongrass; [17]): 35 | Johnsongrass plant response rating (johnsongrass; [18]): 65 | Plant response rating, Johnsongrass (johnsongrass; 13 to 15 days): 75 | Plant response rating (scale of 0 to 100), Ragweed (ragweed; Preemergence, 250 g ai/ha): 100 | Ragweed plant response rating (ragweed; [17]): 70 | Ragweed plant response rating (ragweed; [18]): 100 | Plant response rating, Ragweed (ragweed; 13 to 15 days): 100 | Plant response rating (scale of 0 to 100), Barnyardgrass (barnyardgrass [10]; Preemergence, 250 g ai/ha): 100 | Barnyardgrass plant response rating (barnyardgrass [10]; 31 g ai/ha, scale 0 to 100 (0 no effect, 100 complete control), 13 to 15 days): 50 | Barnyardgrass plant response rating (barnyardgrass [10]; [18]): 85 | Plant response rating, Barnyardgrass (barnyardgrass [10]; 13 to 15 days): 100 | Plant response rating (scale of 0 to 100), Oilseed Rape (oilseed rape; Preemergence, 250 g ai/ha): 100 | Oilseed Rape plant response rating (oilseed rape; [17]): 75 | Oilseed Rape plant response rating (oilseed rape; [18]): 98 | Plant response rating, Oilseed Rape (oilseed rape; 13 to 15 days): 98 | Plant response rating (scale of 0 to 100), Velvetleaf (velvetleaf [11]; Preemergence, 250 g ai/ha): 100 | Velvetleaf plant response rating (velvetleaf [11]; [17]): 55 | Velvetleaf plant response rating (velvetleaf [11]; [18]): 100 | Plant response rating, Velvetleaf (velvetleaf [11]; 13 to 15 days): 90
